{
  "source": "patent US4879376A",
  "about": "“Triterpene saponins having anti-inflammatory, mucolytic and antiedemic activities, process for the preparation thereof and pharmaceutical compositions containing them” (priority 1986, dated 1989)",
  "key": {"[1]": {"system": "carrageenin oedema on rat paw", "assay": "Antioedema activity (carrageenin oedema test)", "type": "in vivo", "protocol": "(b) Antioedema activity (carrageenin oedema test) Antioedema activity was evaluated in the test of carrageenin oedema on rat paw, after oral and topical administration."}, "phenylquinone writhing": {"system": "phenylquinone writhing", "assay": "Analgesic activity (phenylquinone writhing test)", "type": "in vivo", "conditions": "mouse", "excerpt": "(c) Analgesic activity (phenylguinone writhing test)"}, "mucus excretion": {"system": "mucus excretion", "assay": "Mucolytic / expectorant activity (sodium fluorescein excretion)", "type": "in vivo", "conditions": "mouse"}, "rat": {"system": "rat", "conditions": "in vivo, po", "excerpt": "| ^a maximal nondiarrhoic dose"}},
  "data": [
    {"compound": "CC(=O)Oc1ccccc1C(=O)O", "note": "[ASA, acetylsalicylic acid]", "values": [
      {"measurement": "% change in paw oedema versus controls", "setting": "[1]; 1 hour, 200 mg/kg os", "result": -51, "unit": "%"},
      {"measurement": "% change in paw oedema versus controls", "setting": "[1]; 2 hours, 200 mg/kg os", "result": -39, "unit": "%"},
      {"measurement": "% change in paw oedema versus controls", "setting": "[1]; 3 hours, 200 mg/kg os", "result": -52, "unit": "%"},
      {"measurement": "% change in paw oedema versus controls", "setting": "[1]; 4 hours, 200 mg/kg os", "result": -45, "unit": "%"},
      {"measurement": "% change in paw oedema versus controls", "setting": "[1]; 5 hours, 200 mg/kg os", "result": -42, "unit": "%"},
      {"measurement": "% Variation in comparison with controls", "setting": "phenylquinone writhing; 50 mg/kg os", "result": -31, "unit": "%"},
      {"measurement": "% Variation in comparison with controls", "setting": "phenylquinone writhing; 100 mg/kg os", "result": -32, "unit": "%"}
    ]},
    {"compound": "CN(Cc1cc(Br)cc(Br)c1N)C1CCCCC1", "note": "[Bromhexin, Bromhexine]", "values": [
      {"measurement": "% increase of sodium fluorescein excretion in comparison with controls", "setting": "mucus excretion; 75 × 1 mg/kg", "result": "+48%"}
    ]},
    {"compound": "CCCCC1C(=O)N(c2ccccc2)N(c2ccccc2)C1=O", "note": "[Phenylbutazone]", "values": [
      {"measurement": "% change in paw oedema versus controls", "setting": "[1]; 1 hour, 100 mg/kg os", "result": -38, "unit": "%"},
      {"measurement": "% change in paw oedema versus controls", "setting": "[1]; 2 hours, 100 mg/kg os", "result": -30, "unit": "%"},
      {"measurement": "% change in paw oedema versus controls", "setting": "[1]; 3 hours, 100 mg/kg os", "result": -58, "unit": "%"},
      {"measurement": "% change in paw oedema versus controls", "setting": "[1]; 4 hours, 100 mg/kg os", "result": -54, "unit": "%"},
      {"measurement": "% change in paw oedema versus controls", "setting": "[1]; 5 hours, 100 mg/kg os", "result": -47, "unit": "%"}
    ]},
    {"compound": "CC1=CCC(C(C)(C)O)CC1O", "note": "(centres unmarked) [Sobrerol]", "values": [
      {"measurement": "% increase of sodium fluorescein excretion in comparison with controls", "setting": "mucus excretion; 150 × 1 mg/kg", "result": "+67%"}
    ]},
    {"compound": "Escine", "values": [
      {"measurement": "maximal nondiarrhoic dose", "setting": "rat", "result": 50, "unit": "mg/kg"},
      {"measurement": "% change in paw oedema versus controls", "setting": "[1]; 1 hour, 50 mg/kg os (maximal nondiarrhoic dose)", "result": -39, "unit": "%"},
      {"measurement": "% change in paw oedema versus controls", "setting": "[1]; 2 hours, 50 mg/kg os (maximal nondiarrhoic dose)", "result": -44, "unit": "%"},
      {"measurement": "% change in paw oedema versus controls", "setting": "[1]; 3 hours, 50 mg/kg os (maximal nondiarrhoic dose)", "result": -51, "unit": "%"},
      {"measurement": "% change in paw oedema versus controls", "setting": "[1]; 4 hours, 50 mg/kg os (maximal nondiarrhoic dose)", "result": -49, "unit": "%"},
      {"measurement": "% change in paw oedema versus controls", "setting": "[1]; 5 hours, 50 mg/kg os (maximal nondiarrhoic dose)", "result": -35, "unit": "%"}
    ]}
  ]
}
